For series [1], the system named is middle cerebral artery occlusion/reperfusion model. Kind of series: Cerebral infarction reducing effect: middle cerebral artery occlusion/reperfusion model (Example 7). The class given is in vivo, male Wistar rats.
Description: Male Wistar rats aged 8 weeks (Charles River Japan, Inc.) were used in the study. […] They were fed a pellet diet (MF, Oriental Yeast Co., Ltd.) and tap water ad libitum.
Exactly 0.2 g of BHBNa was weighed and dissolved in distilled water for injection to make up a final volume of 10 ml. To 9 ml of this solution, physiological saline was added to make up 30 ml.
Under ether anesthesia, a midline incision was made in the neck. The incision reached the right carotid bifurcation while avoiding injury to the vagus nerve. Around the bifurcation, the common carotid artery and the external carotid artery were separated from surrounding connective tissue and adipose tissue. […] The external carotid artery was then double ligated with 5-0 silk and cut In addition, the right internal carotid artery was dissected out from the surrounding connective tissue to expose the pterygopalatine artery. The external carotid artery was incised, and an embolizing thread was inserted via this incision to a distance of 21 mm into the internal carotid artery. The tip of the thread went beyond the origin of the middle cerebral artery and entered the anterior cerebral artery by about 1-2 mm, so that the middle cerebral artery was occluded by the central portion of the thread.
In sham-operated rats, the skin incision was closed without inserting any embolizing thread into the internal carotid artery. The rats were then maintained until the scheduled time of sacrifice.
After the middle cerebral artery was occluded with an embolizing thread for 2 hours, the thread was removed under ether anesthesia to allow reperfusion.
Immediately after insertion of the embolizing thread, the rats were given a continuous infusion of physiological saline or 0.6% BHBNa solution via a cannula inserted into a femoral vein on the previous day. Administration was performed at a rate of 5 ml/kg/hr using an infusion pump and was continued until the scheduled time of sacrifice (24 hours after reperfusion).
Each rat was sacrificed at 24 hours after reperfusion. The cerebrum was isolated, and cut into 2 mm coronal sections by using a Brain Slicer (MUROMACHI KIKAI Co., Ltd.) from a point 7 mm behind the edge of the forebrain to the interauricular line (telencephalon). The brain sections were stained to detect normal mitochondria by total immersion for 30 min in a 2% solution of 2,3,5-triphenyltetrazolium chloride (TTC) in physiological saline. […]
Photographs of the TTC-stained coronal sections of the cerebrum were scanned by using an film scanner and the data were processed with image analyzing software (NIH Image). The percent infarcted area (mitochondria death) on each cerebral section was calculated from the total area of the unstained regions relative to the entire area of the section.
Series [2] deals with cerebral edema induced by ligation and severing of the bilateral common carotid arteries. The series can be described thus: Cerebral edema suppressing effect: cerebral water content after ligation and severing of the bilateral common carotid arteries (Examples 1-3). The class given is in vivo, male Wistar rats. From the text: (§1) Rats were operated on under anesthesia which was introduced with ether and maintained by inhalation of a mixture of isoflurane/nitrous oxide/oxygen (0.5:70:30). A midline incision was made in the neck and the connective tissue was carefully dissected to avoid injury to the vagus nerve while exposing the bilateral common carotid arteries.
For test drug administration, the right external jugular vein was cannulated and the other end of the cannula was led out through the back of the animal. Then the common carotid artery was ligated at two points (head side and heart side) and severed between the two ligatures. […]
In sham-operated rats, the bilateral common carotid arteries were exposed in the same way and the skin incision was closed without arterial ligation and severing.
On completion of administration, each rat was decapitated, and the whole brain was isolated immediately. After removal of the cerebellum and the medulla oblongata, the wet weight of the cerebrum was measured. […] The cerebral water content was calculated by using the following formula:
Cerebral water content (%)=(wet weight of the cerebrum-dry weight of the cerebrum)/wet weight of the cerebrum×100. […]

For series [3], the system named is Wistar or SD rats. Kind of series: 2-week repeated dose toxicity study (Example 8). The class given is in vivo, male Wistar or SD rats. The conditions noted are these: 500 mg/kg-2000 mg/kg, oral or intravenous, 2 weeks. From the text: (2) BHBNa was repeatedly administered orally or intravenously to male Wistar or SD rats for 2 weeks.
A short description of series [4]: Stability of test drug and prepared solutions. The class given is physicochemical.
Series [5] concerns bilateral common carotid artery ligation (BLCL). The series can be described thus: Cerebral metabolic activation: cerebral water and electrolyte content in rats with bilateral common carotid artery ligation (Example 5). The class given is in vivo, male Wistar rats. The following applies: 25 mg/kg/hr i.v. infusion for 5 hours, n = 9, mean ± S.E. The method, then: Male Wistar rats purchased from Japan S.L.C., Ltd. were used after a 1-week acclimatization period. The animals were maintained at 23±2° C. and 55±10% humidity with lights on for 12 hours daily (from 7:00 to 19:00). They were fed a pellet diet (MF, Oriental Yeast Co., Ltd.) and tap water ad libitum. Their weight averaged 172.1±6.7 g at the time of the study.
Sodium β-hydroxybutyrate (BHBNa).
The dose of BHBNa tested was 25 mg/kg/hr. The test group was treated with a 20 mM BHBNa solution, while the control group received physiological saline. In both groups, administration was performed at a rate of 10 ml/kg/hr for 5 hours.
Rats were operated on under anesthesia which was introduced with ether and maintained by inhalation of a mixture of isoflurane/nitrous oxide/oxygen (0.5:70:30). A midline incision was made in the neck. The connective tissue was dissected carefully to avoid injury to the vagus nerves while exposing the bilateral common carotid arteries. The right external jugular vein was cannulated and the other end of the cannula was led out through the back. Each of the exposed common carotid arteries was ligated at two points (head side and heart side) and severed between the two ligatures. The skin incision was sutured and each rat was immediately given the test drug or physiological saline by continuous intravenous infusion using an infusion pump at a rate of 10 ml/kg/hr for 5 hours. In sham-operated rats, the bilateral common carotid arteries were exposed in the same way and the skin incision was closed without arterial ligation and severing. After completion of administration, each animal was sacrificed by decapitation and the whole brain was immediately isolated. After removal of the cerebellum and the medulla oblongata, the wet weight of the cerebrum was measured. The cerebrum was then dried at 105° C. for 24 hours and the dry weight was measured. The cerebral water content was calculated by using the following formula: […]
Data are expressed as the mean±standard error (S.E.). […]

The test system of series [6] is cerebral ischemia model (BLCL). The series can be described thus: Cerebral ATP and lactate levels in rats with BLCL (Example 6). The class given is in vivo, male Wistar rats.
Description: as §1
For test drug administration, the right external jugular vein was cannulated and the other end of the cannula was led out through the back of the animal. Then the common carotid artery was ligated at two points (head side and heart side) and severed between the two ligatures.
The level of significance was set at p<0.05.

Another series concerns normal rats without BLCL. Kind of series: Cerebral ATP and lactate levels in normal rats without BLCL (Example 6). The class given is in vivo, male Wistar rats. The conditions noted are these: continuous infusion for 3 hours. How it is done: Male Wistar rats (Japan S.L.C., Ltd.) were used in the study. The animals were maintained at 23±3° C. and 55±15% humidity with lights on for 12 hours daily (from 7:00 to 19:00). They were fed a pellet diet (MF, Oriental Yeast Co., Ltd.) and tap water ad libitum. Their weight ranged from 161.7 to 249.0 g at the time of the study.
Exactly 0.2 g of BHBNa was weighed and dissolved in distilled water for injection to make a final volume of 10 ml. To 9 ml of this solution, physiological saline was added to make up 30 ml. The 0.6% BHBNa solution thus obtained was sterilized by filtration through DISMIC-25CS ([…], ADVANTEC Toyo) prior to use.
After 3 hours of cerebral ischemia, the head of each rat was irradiated with microwaves (5 kW) for 2 seconds using a microwave applicator (TMW6402C, Toshiba) to terminate all enzyme reactions and the production/degradation of metabolites in the brain tissue. […] The weight of the cerebrum was calculated from the difference of the weight of the test tube measured as above.
The cerebral ATP level was determined by an enzymatic method (the luciferin-luciferase method) by using Lumat LB9507 (EG&G BERTHOLD). The data obtained were expressed as μmoles/wet weight g.
The cerebral lactate level was determined by an enzymatic method (lactate dehydrogenase method) by using Determiner LA (Kyowa Medics). The data obtained were expressed as μmoles/wet weight g. […]

The test system of a further series is KCN-induced death. The class given is in vivo, male Wistar rats. The conditions noted are these: for survival time after KCN: KCN 3 mg/kg, mean ± S.E.
The test system of series [7] is Wistar or SD rats. The series can be described thus: Single dose toxicity study (Example 8). The class given is in vivo, Wistar or SD rats of both sexes. The following applies: 2000 mg/kg, oral or intravenous. How it is done:
(1) BHBNa was orally or intravenously administered to Wistar or SD rats of both sexes at a single dose of 2000 mg/kg.

The next series relates to acute cerebral injury. The conditions noted are these: intravenous, after acute cerebral injury; cited from earlier work.
The conditions of series [8]: cited from earlier work.

Molecules are shown by their SMILES. Where “and” joins values, the source holds several entries; their conditions need not be identical. Identical values can stand only once. Like-named read-outs stand apart in the source and are kept apart here.

In the case of `CC(O)CC(=O)[O-].[Na+]` (stereo not drawn), in series [1] (30 mg/kg/hr continuous infusion), the “localization of infarct foci” value was “Most infarct foci were localized in the central ischemic zone and few extended to the surrounding regions”. The Infarction % in series [1] (30 mg/kg/hr i.v. infusion from arterial occlusion (2 hours) to 24 hours after reperfusion, n = 4, saline 35.18±2.69%, listed as BHBNa) is 18.99% and 18.99 ±1.59%. Also, the “relation of cerebral water content to dose” value in [2] (FIG. 1, i.v. infusion for 5 hours) is recorded as “related to the dose”. Further, the “statistical significance of lower cerebral water content vs. physiological saline group” value in series [2] (by dose, i.v. infusion 10 ml/kg/hr for 5 hours) is recorded as “statistically significant (p<0.01) at doses of 5 mM or more”. Besides, the “cerebral water content vs. physiological saline group” value in [2] (sodium β-hydroxybutyrate 3.1-400 mg/kg/hr (2.5-320 mM, 10 ml/kg/hr) i.v. infusion for 5 hours, FIG. 1) was “lower than in the physiological saline group”. In the series on Wistar or SD rats [3], the repeated dose toxicity entry was “survived without any abnormal findings”. Besides, the “stability of prepared solution” value in [4] is reported as “at least 1 week”. The stability on storage in [4] worked out at 5 months. The “changes in quality of the lot used in the study” value in series [4] (tested after completion of the study) is on record as “no changes in quality”. In [5] (P < 0.01 vs. physiological saline (81.96 ± 0.21)), the Cerebral water content amounted to 79.50 ± 0.09%. In addition, in [5] (cerebral, P < 0.01 vs. physiological saline (304.39 ± 12.83)), the “Na^+ content” value was 269.74 ± 15.98 mEq/kg dry weight. Also, in series [5] (cerebral, physiological saline 405.99 ± 20.96, not significantly different), the “K^+ content” value worked out at 420.42 ± 5.76 mEq/kg dry weight. In addition, the “cerebral ATP level” value in series [6] (3 hours of BLCL, BHBNa 30 mg/kg/hr, mean±S.E., saline 0.52±0.10, sham 1.85±0.13) was found to be 1.56±0.10 μmoles/wet weight g. This compound registered a cerebral lactate level in series [6] (3 hours of BLCL, BHBNa 30 mg/kg/hr, mean±S.E., saline 11.39±0.85, sham 0.61±0.12) of 1.36±0.17 μmoles/wet weight g. In addition, the “cerebral ATP level in normal rats” value in the series on normal rats without BLCL was “no significant effect”. Moreover, the “cerebral lactate level in normal rats” value in the series with normal rats without BLCL is reported as “no significant effect”. Besides, the “survival time after KCN” value with KCN-induced death (50 mg/kg/hr for 1 hour i.v., saline 44.6±1.6 sec, FIG. 2) was found to be 58.8 ± 2.4 s; in the series on KCN-induced death (100 mg/kg/hr for 1 hour i.v. (duration comparison), FIG. 3), 58.2 ± 2.2 s; with KCN-induced death (100 mg/kg/hr for 1 hour i.v., saline 44.6±1.6 sec, FIG. 2), 58.8 ± 1.2 s; with KCN-induced death (100 mg/kg/hr for 3 hours i.v., FIG. 3), 61.0 ± 1.6 s. In addition, the single dose toxicity entry with Wistar or SD rats [7] is recorded as “survived without any abnormal findings”.

`COC(=O)CC(C)O` (stereo not drawn) [methyl β-hydroxybutyrate]: the “cerebral water content vs. physiological saline-treated group” value in [2] (parenteral solution with methyl β-hydroxybutyrate 2.42 g/l, NaCl, KCl, glucose) is given as “lower than in the physiological saline-treated group”.

As for `CC(O)CC(=O)O` (stereo not drawn) [β-hydroxybutyric acid], the “extent of cerebral infarction (summary)” value in series [1] (administration during ligation of the middle cerebral artery and subsequent reperfusion) is “markedly reduced”. The “increase in cerebral water content induced by BLCL for 6 hours” value in series [2] (at the doses tested in Example 4 (50 and 100 mg/kg/hr)) is “significantly suppressed”. Also, in series [2] (simultaneous intravenous administration, ligation of bilateral common carotid arteries), the “development of cerebral edema (summary)” value was “prevented the development of cerebral edema”. In the series with acute cerebral injury, the “ketone level in the cerebrospinal fluid” value is “increased” and the “lactate level in the cerebrospinal fluid” value is “decreased”. The water solubility entry in series [8] is recorded as “water-soluble”. For the same compound, in series [6] (ligation of bilateral common carotid arteries), the “cerebral ATP levels (summary)” value is “high cerebral ATP levels were maintained”. Moreover, the “survival time after lethal KCN (summary)” value with KCN-induced death (intravenous pretreatment) is “prolonged the survival time”.

The values are drawn from patent publication US6232345A, “Cerebral function improving agents” (Shimizu Pharmaceutical Co., Ltd., priority 1995, dated 2001).
